# Tests used:
# IL-12 = IL-12 production by MΦ induced by intraperitoneal injection of substances (Example 7); type: in vivo, mouse
# Method: The amount of IL-12 was determined through bioassay using cells of human T cell strain 2D6 (J. Leukocyte Biology, vol. 61, p. 346, 1997).
# 2D6 cells which had been incubated in an RPMI 1640 medium containing 500 pg/ml of recombinant human IL-12, 50 μM of 2-mercaptoethanol and 10% FCS (fetal calf serum) were moved to a tube, and centrifugally washed three times with the above-mentioned medium without IL-12 and cell density was adjusted to 1×10^5/ml. The cell suspension was added in an amount of 100 μl each to a 96-well flat bottom plate containing a sample serially diluted in advance with an RPMI 1640 medium containing 50 μM of 2-mercaptoethanol and 10% FCS in an amount of 100 μl each. Subsequently, the mixture was charged into a 5% […] incubator of 37° C., and incubated for 48 hours. For final 6 hours, ^3H-TdR was pulsed (a substance adjusted to 370 kBq/ml in an RPMI 1640 medium containing 50 μM of 2-mercaptoethanol and 10% FCS was added in an amount of 50 μl each). The cells a harvested, and the radioactivity was measured using a β counter (Matrix 96, supplied by Packard).
# It was examined whether there is a difference in the IL-12 production between LNT-induced MΦ and LPS-induced MΦ. […] Next, the same analysis was conducted using MΦ induced by intraperitoneally injecting substances for changing the GSH content in cells.
# [1] = system: spontaneous onset of insulin-dependent diabetes mellitus; assay: Onset of diabetes mellitus in NOD mice dosed at age 3 to 6 and 9 to 11 weeks (Example 24); type: in vivo; details: route not given, 0.1 mg/kg; 15 times in total; judged on week 22; saline 60
# From the text: (§1) NOD mice purchased from Nippon Clair, Co. were naturally mated together. Among the off spring mice, a colony of NOD mice with a high frequency of the spontaneous onset of insulin-dependent diabetes mellitus was established. Female NOD mice from the colony were used for the present experiment. […] Urine glucose was detected, using Uropaper (BM Test Glucose 5000, manufactured by Yamanouchi Pharmaceuticals, Co. Ltd.). The onset was judged on week 22.
# [2] = system: spontaneous onset of insulin-dependent diabetes mellitus; assay: Onset of diabetes mellitus in NOD mice dosed at age 9 to 11 weeks (Example 25); type: in vivo; details: route not given, nine times, judged on week 22, saline 67
# From the text: NOD mice purchased from Nippon Clair, Co. were naturally mated together. Among the off spring mice, a colony of NOD mice with a high frequency of the spontaneous onset of insulin-dependent diabetes mellitus was established. Female NOD mice from the colony were used for the present experiment. Chemical agents were orally or intraperitoneally administered to the NOD mice aged 9 to 11 weeks three times per week, in total nine times; and based on the test results of urine glucose, positive or negative, the onset of diabetes mellitus was followed once per week. Urine glucose was detected, using Uropaper (BM Test Glucose 5000, manufactured by Yamanouchi Pharmaceuticals, Co. Ltd.). The onset was judged on week 22; the doses were the same as in Example 24.
# [3] = system: adjuvant-induced arthritis; assay: Adjuvant-induced arthritis (AA) in rats, joint swelling (Examples 18 and 19); type: in vivo, Lewis rats
# Method: Adjuvant-induced arthritis was triggered in Lewis rats in a conventional manner; and the effects of chemical agents were examined in the animals. Adjuvant-induced arthritis is well known as an experimental arthritis inducible in rats [Taurog et al., Meth. Enzymol. 162, 339-355 (1988)]. […] An adjuvant is administered at 1 mg/0.1 ml per rate at a site of caudal root. The edema reaches its peak about 2 to 3 weeks after the administration of the adjuvant. The edema is triggered by inflammatory infiltration of monocytes. Swollen joints are measured with a micrometer every day; comparing the diameters of the joints prior to and after adjuvant administration and after initiation of the treatment with chemical agents with the diameters of the joints in the control group, the effects of the chemical agents were expressed as the ratio in % of joint swelling in the experimental groups to joint swelling in the control group. The effects were determined on day 15 after adjuvant administration. The chemical agents were given, starting the day next to the day of adjuvant administration, and every 3 days thereafter.
# A single dose is 1 mg/kg for (NAC)2 and (NAC-OMe)2; 100 mg/kg for NAC; and 0.1 mg/kg for lentinan.
# Adjuvant-induced arthritis was induced in Lewis rats in a conventional manner. In the same manner as in Example 11, the effects of chemical agents were examined in these rats. The conditions were the same as described above.
# [4] = system: peritoneal exudate cells (macrophages); assay: Induction of oxidative and reductive macrophages, monochlorobimane/ACAS (Example 1); type: in vivo; details: LPS 20 μg or lentinan 100 μg three times every two days into the abdominal cavity of a mouse
# Method: These were clarified by adhering peritoneal exudate cells to the plastic surface, then reacting the same with 10 μM of monochlorobimane at 37° C. for 30 minutes and conducting analysis with Adherent Cell Analyzing System (ACAS). The increase in the amounts of oxidative macrophages can easily be measured visually from the fact that almost no reaction product is observed, that is, gray or blue image is obtained, and the increase in the amounts of reductive macrophages from the fact that the red or yellow image is obtained, respectively.
# [5] = system: spontaneous onset of insulin-dependent diabetes mellitus; assay: Onset of diabetes mellitus in NOD mice dosed at age 3 to 6 weeks (Example 23); type: in vivo; details: intraperitoneal, three times per week, nine times
# Method: as §1, with “Chemical agents were administered intraperitoneally, unless otherwise stated. […] (NAC)2 and (NAC-OMe)2 were at a single dose of 20 μg/animal; and NAC and GSHOEt were at a single dose of 2 μg/animal; and a single dose of lentinan” for “The onset”, “0.1 mg/kg.” for “judged on week 22.”
substance,measurement,setting,value
Lentinan [reference compound],IL-12 production,"IL-12; MΦ induced by intraperitoneal injection of the substance, stimulation with LPS and IFNγ","1,312 pg/ml"
same,"IL-12 production of substance-induced MΦ, without DEM or IL-4",IL-12; baseline values of the DEM and IL-4 experiments,828 pg/mL
same,Frequency (%) of onset of diabetes mellitus,[1],0%
same,Frequency (%) of onset of diabetes mellitus,[2],50%
same,Ratio in % of joint swelling in experimental groups to joint swelling in control group,"[3]; Table 3, day 15 after adjuvant, every 3 days, single dose 1 mg/kg (NAC)2 and (NAC-OMe)2, 100 mg/kg NAC, 0.1 mg/kg lentinan",52%
same,Ratio in % of joint swelling in experimental groups to joint swelling in control group,"[3]; Table 4, intravenous",50%
same,"type of macrophages induced (GSH by monochlorobimane, ACAS)",[4],reductive macrophages were induced
same,"Frequency (%) of onset of diabetes mellitus, on age 18 weeks",[5]; saline 50,10%
same,"Frequency (%) of onset of diabetes mellitus, on age 22 weeks",[5]; saline 80,20%

# — patent US7378387B2, “Method of suppressing immune response by reducing intracellular content of glutathione in macrophages and monocytes” (Ajinomoto Co., Inc., priority 1997, dated 2008)
